Data on 1 compound can be found in article PMC6367342, “The major allergen Der p 2 is a cholesterol binding protein” (Scientific Reports, 2019).

This test deals with T1, rDer f 2 (Dermatophagoides farinae, UniProt Q00855).
T1 construct: gene DERF2
T1 sequence (Q00855 18-146): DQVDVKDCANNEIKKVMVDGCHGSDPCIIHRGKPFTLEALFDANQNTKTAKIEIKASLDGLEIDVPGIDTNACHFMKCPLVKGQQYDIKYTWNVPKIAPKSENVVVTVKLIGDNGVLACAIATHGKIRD
Description: lipid ELISA on immobilized lipid, polyclonal anti-allergen IgG detection. Format: binding. The following applies: 0.5 ug/mL protein; lipid coated 0.02-6.40 nmol/well; PBS, 1% BSA block; 1 h. (In general: An ELISA detects its analyte on a solid surface through an enzyme-linked reagent.)

For `CC(C)CCC[C@@H](C)[C@H]1CC[C@H]2[C@@H]3CC=C4C[C@@H](O)CC[C@]4(C)[C@H]3CC[C@]12C` [cholesterol], the “lipid ELISA on immobilized lipid, polyclonal anti-allergen IgG detection” value was “also showed dose-dependent binding to cholesterol, but not POPG”.
